The conditions of data set [1]: Crystal; DTA.
A short description of data set [2]: Molar enthalpy of transition or fusion. The conditions noted are these: Crystal; DSC.

± gives the expanded uncertainty stated by the source.

For `CCOC(=O)c1ccc(O)cc1` [ethyl 4-hydroxybenzoate], the Normal melting temperature in data set [1] worked out at 115.50 ± 0.5 °C. Further, the “Molar enthalpy of transition or fusion” value in data set [2] came out at 6.16 ± 0.179 kcal/mol.
The matching figures for `CCCOC(=O)c1ccc(O)cc1` [propyl 4-hydroxybenzoate]: 96.40 ± 0.5 °C and 6.34 ± 0.182 kcal/mol.
